Results on five compounds are retold here after patent US11629171B2, “Beta-hairpin peptidomimetics” (POLYPHOR AG, priority 2017, dated 2023).

Converted amounts (≈) assume the structure as drawn. Where two headings read alike, the source gives them in different places. Where a SMILES comes first, the peptide text is derived from it. Bridges are numbered along the chain shown (N, C = ends). Roman numbers before positions name the chains, in order. [ ]: non-standard residue; d: D form. The star is where a group is joined. Tyrosinol = OC[C@H](Cc1ccc(O)cc1)N*; Thr(ol) = C[C@@H](O)[C@H](N)CO; Pen = CC(C)(S)[C@H](N)C(=O)O; Tle = CC(C)(C)[C@H](N)C(=O)O; Hiv = CC(C)[C@H](O)C(=O)O; dDab = NCC[C@@H](N)C(=O)O; hSer = N[C@@H](CCO)C(=O)O; NHCH(CH2OH)2 = OCC(CO)N*; Orn = NCCC[C@H](N)C(=O)O; Dab = NCC[C@H](N)C(=O)O; Dap = NC[C@H](N)C(=O)O

Assay type in all cases: cell-based
Series [1] deals with Klebsiella pneumoniae SSI #3010. Summed up: (§1)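 Two-fold peptide dilutions in polysorbate 80-containing (0.002% final) cation-adjusted Mueller-Hinton II broth were inoculated with about 10^6 CFU/mL. The MIC was taken as the lowest concentration, in μg/mL, preventing visible growth at 18-20 hours and 35° C.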
For series [2], the system named is Pseudomonas aeruginosa ATCC 27853. The method, boiled down: as §1
Series [3] has as its system Enterobacter cloacae 848840. Summed up:
as §1

Series [4] has as its system Acinetobacter baumannii 872842. Summed up:
as §1

In series [5] the test system is Klebsiella pneumoniae 968733. Summed up:
as §1

Series [6] deals with Escherichia coli ATCC 25922. The method, boiled down: as §1
In series [7] the test system is Acinetobacter baumannii DSM 30008. Summed up:
as §1

Series [8] deals with Escherichia coli 926415. The method, boiled down: as §1
The test system of series [9] is human red blood cells (hRBC). Kind of series: Hemolysis. The method, boiled down: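 First, fresh human erythrocytes are washed in PBS; next, they are incubated at 20% (v/v) with compound at 200 μg/mL for 1 h at 37° C. Finally, centrifuged supernatants are diluted and OD540 is taken relative to the Triton X-100 lysis control.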

On to `CC(=O)N[C@H](C(=O)N[C@H]1CSSC[C@@H](C(=O)N[C@H](CO)Cc2ccc(O)cc2)NC(=O)[C@H](C(C)(C)C)NC(=O)[C@H](CO)NC(=O)[C@H](Cc2c[nH]c3ccccc23)NC(=O)[C@H](CCO)NC(=O)[C@@H](CCN)NC(=O)[C@H](CCC(=O)N[C@@H](CCN)C(=O)N[C@H](C(=O)N[C@@H](CCN)C(=O)N[C@H]2CCNC(=O)[C@H]([C@@H](C)O)NC(=O)[C@H](CCN)NC(=O)[C@H](CCN)NC(=O)[C@H](CC(C)C)NC(=O)[C@@H](CC(C)C)NC(=O)[C@H](CCN)NC2=O)[C@@H](C)O)NC(=O)[C@H](CCN)NC(=O)[C@H](CO)NC1=O)C(C)C` [Ex. 94] (I: Ac-VCS[Dab]E[dDab][hSer]WS[Tle]C-Tyrosinol / II: [Dab]T[Dab][Dab][Dab][dL]L[Dab][Dab]T; disulfide I:2-I:11; amide I:5-II:N; lactam II:4-II:C), for which the MIC stood at 0.0625 µg/mL (≈ 0.0257 µM) in series [1] (Klebsiella pneumoniae SSI #3010, Mueller-Hinton II broth); 0.25 µg/mL (≈ 0.103 µM) in series [2] (Pseudomonas aeruginosa ATCC 27853, Mueller-Hinton II broth); 1 µg/mL (≈ 0.412 µM) in series [3] (Enterobacter cloacae 848840 clinical isolate, Mueller-Hinton II broth); 0.25 µg/mL (≈ 0.103 µM) in [4] (Acinetobacter baumannii 872842 clinical isolate, Mueller-Hinton II broth); 0.25 µg/mL (≈ 0.103 µM) in series [5] (Klebsiella pneumoniae 968733 clinical isolate, Mueller-Hinton II broth); 0.0625 µg/mL (≈ 0.0257 µM) in series [6] (Escherichia coli ATCC 25922, Mueller-Hinton II broth). Also, the MIC is 0.125 µg/mL (≈ 0.0515 µM) in series [7] (Acinetobacter baumannii DSM 30008, Mueller-Hinton II broth) and 0.25 µg/mL (≈ 0.103 µM) in [8] (Escherichia coli 926415 clinical isolate, Mueller-Hinton II broth). For the same compound, the “Hemolysis at 200 μg/mL” value in series [9] (200 μg/mL, human red blood cells) was less than 1%.
For `CC(=O)N[C@H](C(=O)N[C@H]1CSSC[C@@H](C(N)=O)NC(=O)[C@H](C(C)(C)C)NC(=O)[C@H](CO)NC(=O)[C@H](Cc2c[nH]c3ccccc23)NC(=O)[C@H](CCN)NC(=O)[C@@H](CCN)NC(=O)[C@H](CCC(=O)N[C@@H](CCN)C(=O)N[C@H](C(=O)N[C@@H](CN)C(=O)N[C@H]2CCNC(=O)[C@H]([C@@H](C)O)NC(=O)[C@H](CCN)NC(=O)[C@H](CCN)NC(=O)[C@H](CC(C)C)NC(=O)[C@@H](CC(C)C)NC(=O)[C@H](CCN)NC2=O)[C@@H](C)O)NC(=O)[C@H](CN)NC(=O)[C@H](Cc2ccc(O)cc2)NC1=O)C(C)C` [Example 10] (I: Ac-VCY[Dap]E[dDab][Dab]WS[Tle]C-NH2 / II: [Dab]T[Dap][Dab][Dab][dL]L[Dab][Dab]T; disulfide I:2-I:11; amide I:5-II:N; lactam II:4-II:C), the MIC in series [1] (SSI #3010) amounted to 0.25 µg/mL (≈ 0.108 µM); in [2] (ATCC 27853), 0.125 µg/mL (≈ 0.0538 µM); in series [3] (848840) it was 0.25 µg/mL (≈ 0.108 µM); in series [4] (872842) it was 0.125 µg/mL (≈ 0.0538 µM); in series [5] (968733) it was 0.5 µg/mL (≈ 0.215 µM); in series [6] (ATCC 25922) it was 0.25 µg/mL (≈ 0.108 µM). Moreover, the MIC worked out at 0.125 µg/mL (≈ 0.0538 µM) in [7] (DSM 30008) and 8 µg/mL (≈ 3.44 µM) in series [8] (926415). The “Hemolysis at 200 μg/mL” value in [9] (red cells of human, 1 h, 200) is reported as less than 1%.
Regarding `CC(C)C[C@@H]1NC(=O)[C@@H](CC(C)C)NC(=O)[C@H](CCN)NC(=O)[C@@H](NC(=O)[C@H](CN)NC(=O)[C@@H](NC(=O)[C@H](CCN)NC(=O)CC[C@H]2NC(=O)[C@H](CCCN)NC(=O)[C@H](CCN)NC(=O)[C@H](Cc3ccc(O)cc3)NC(=O)[C@@H](NC(=O)[C@@H](O)C(C)C)CSSC[C@@H](C(=O)NC(CO)CO)NC(=O)[C@H](C(C)(C)C)NC(=O)[C@H](CO)NC(=O)[C@H](Cc3c[nH]c4ccccc34)NC(=O)[C@H]([C@@H](C)O)NC2=O)[C@@H](C)O)CCNC(=O)[C@H]([C@@H](C)O)NC(=O)[C@H](CCN)NC(=O)[C@H](CCN)NC1=O` [Ex. 163] (I: H-[Hiv]CY[Dab][Orn][dE]TWS[Tle]C-{NHCH(CH2OH)2} / II: [Dab]T[Dap][Dab][Dab][dL]L[Dab][Dab]T; disulfide I:2-I:11; amide I:6-II:N; lactam II:4-II:C), the MIC turned out to be 0.25 µg/mL (≈ 0.105 µM) in series [1] (SSI #3010); 0.25 µg/mL (≈ 0.105 µM) in series [2] (ATCC 27853); 4 µg/mL (≈ 1.68 µM) in series [3] (848840); 0.25 µg/mL (≈ 0.105 µM) in [4] (872842); 0.5 µg/mL (≈ 0.209 µM) in series [5] (968733); 0.125 µg/mL (≈ 0.0524 µM) in [6] (ATCC 25922). Besides, the minimum inhibitory concentration (MIC) is 0.125 µg/mL (≈ 0.0524 µM) in series [7] (DSM 30008) and 0.5 µg/mL (≈ 0.209 µM) in series [8] (926415). Further, the “Hemolysis at 200 μg/mL” value in series [9] (red cells of human, 1 h, 200) came to 1%.
`CC(C)C[C@@H]1NC(=O)[C@@H](CC(C)C)NC(=O)[C@H](CCN)NC(=O)[C@@H](NC(=O)[C@H](CCN)NC(=O)[C@@H](NC(=O)[C@H](CCN)NC(=O)CC[C@@H]2NC(=O)[C@H](CCN)NC(=O)[C@H](Cc3ccc(O)cc3)NC(=O)[C@@H](NC(=O)[C@@H](O)C(C)C)CSSC[C@@H](C(=O)N[C@H](CO)[C@@H](C)O)NC(=O)[C@H](C(C)(C)C)NC(=O)CNC(=O)[C@H](Cc3c[nH]c4ccccc34)NC(=O)[C@H](CCO)NC(=O)[C@@H](CCN)NC2=O)[C@@H](C)O)CCNC(=O)[C@H]([C@@H](C)O)NC(=O)[C@H](CCN)NC(=O)[C@H](CCN)NC1=O` [Ex. 87] (I: H-[Hiv]CY[Dab]E[dDab][hSer]WG[Tle]C[Thr(ol)] / II: [Dab]T[Dab][Dab][Dab][dL]L[Dab][Dab]T; disulfide I:2-I:11; amide I:5-II:N; lactam II:4-II:C): the minimum inhibitory concentration (MIC) in [1] (SSI #3010) worked out at 0.125 µg/mL (≈ 0.0527 µM); in series [2] (ATCC 27853), 0.125 µg/mL (≈ 0.0527 µM); in series [3] (848840), 2 µg/mL (≈ 0.844 µM); in series [4] (872842), 0.25 µg/mL (≈ 0.105 µM); in series [5] (968733), 0.125 µg/mL (≈ 0.0527 µM); in [6] (ATCC 25922), 0.0625 µg/mL (≈ 0.0264 µM). Further, the minimal inhibitory concentration (MIC) in series [7] (DSM 30008) and in [8] (926415) was 0.0625 µg/mL (≈ 0.0264 µM) in each case. The “Hemolysis at 200 μg/mL” value in [9] (red cells of human, 1 h, 200) was less than 1%.
As to `CC(=O)N[C@H](C(=O)N[C@H](C(=O)N[C@@H](Cc1ccc(O)cc1)C(=O)N[C@H]1CSSC(C)(C)[C@@H](C(=O)N[C@H](C(=O)N[C@H](C(=O)N[C@H](C(N)=O)[C@@H](C)O)[C@@H](C)O)C(C)(C)C)NC(=O)[C@H](Cc2c[nH]c3ccccc23)NC(=O)[C@H](CO)NC(=O)[C@@H](CCN)NC(=O)[C@H](CCC(=O)N[C@@H](CCN)C(=O)N[C@H](C(=O)N[C@@H](CN)C(=O)N[C@H]2CCNC(=O)[C@H]([C@@H](C)O)NC(=O)[C@H](CCN)NC(=O)[C@H](CCN)NC(=O)[C@H](CC(C)C)NC(=O)[C@@H](CC(C)C)NC(=O)[C@H](CCN)NC2=O)[C@@H](C)O)NC1=O)[C@@H](C)O)C(C)C` [Ex. 221] (I: Ac-VTYCE[dDab]SW[Pen][Tle]TT-NH2 / II: [Dab]T[Dap][Dab][Dab][dL]L[Dab][Dab]T; disulfide I:4-I:9; amide I:5-II:N; lactam II:4-II:C), the MIC in series [1] (SSI #3010) worked out at 0.125 µg/mL (≈ 0.0506 µM); in [2] (ATCC 27853) it was 0.125 µg/mL (≈ 0.0506 µM); in [3] (848840), 0.125 µg/mL (≈ 0.0506 µM); in series [4] (872842) it was 0.0625 µg/mL (≈ 0.0253 µM); in series [5] (968733), 0.25 µg/mL (≈ 0.101 µM); in [6] (ATCC 25922) it was 0.0625 µg/mL (≈ 0.0253 µM). For the same compound, the minimal inhibitory concentration (MIC) in series [7] (DSM 30008) was found to be 0.0625 µg/mL (≈ 0.0253 µM); in series [8] (926415), 0.125 µg/mL (≈ 0.0506 µM). Besides, the “Hemolysis at 200 μg/mL” value in series [9] (red cells of human, 1 h, 200) was 2%.

By MIC is commonly meant the least concentration at which growth counts as inhibited. A low value points to inhibition by little substance.
